Laboratory results taken from ChEMBL document CHEMBL6074666, “Design and Synthesis of Acyclic Boronic Acid Arginase Inhibitors” (J Med Chem, 2024).

Tests used:
[1] = Oral availability in rat; type: ADME; conditions: in vivo
[2] = Prodrug conversion in rat assessed as oral bioavailability of (2S,3S)-2-amino-3-(aminomethyl)-6-boronohexanoic acid metabolite; type: ADME, organism-based; conditions: in vivo
Arginase-1 [3] = molecular target: T1, Arginase-1 (Homo sapiens, UniProt P05089); test: Inhibition of recombinant human Arg1 extracted from Escherichia coli incubated for 30 mins by Ellman's method
T1 sequence (P05089 whole entry): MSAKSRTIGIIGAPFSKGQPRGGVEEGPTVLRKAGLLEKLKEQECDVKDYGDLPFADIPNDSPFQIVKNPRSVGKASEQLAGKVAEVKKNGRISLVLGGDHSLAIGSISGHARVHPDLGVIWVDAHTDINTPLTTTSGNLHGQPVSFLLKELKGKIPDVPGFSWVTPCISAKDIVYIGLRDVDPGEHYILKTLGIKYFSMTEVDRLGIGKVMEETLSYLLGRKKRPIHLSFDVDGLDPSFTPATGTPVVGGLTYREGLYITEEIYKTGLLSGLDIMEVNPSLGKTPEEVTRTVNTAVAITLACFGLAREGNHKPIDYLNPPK

[4] = molecular target: T2, Arginase-2, mitochondrial (Homo sapiens, UniProt P78540); test: Inhibition of recombinant human Arg2 extracted from Escherichia coli incubated for 30 mins by Ellman's method
T2 sequence (P78540 whole entry): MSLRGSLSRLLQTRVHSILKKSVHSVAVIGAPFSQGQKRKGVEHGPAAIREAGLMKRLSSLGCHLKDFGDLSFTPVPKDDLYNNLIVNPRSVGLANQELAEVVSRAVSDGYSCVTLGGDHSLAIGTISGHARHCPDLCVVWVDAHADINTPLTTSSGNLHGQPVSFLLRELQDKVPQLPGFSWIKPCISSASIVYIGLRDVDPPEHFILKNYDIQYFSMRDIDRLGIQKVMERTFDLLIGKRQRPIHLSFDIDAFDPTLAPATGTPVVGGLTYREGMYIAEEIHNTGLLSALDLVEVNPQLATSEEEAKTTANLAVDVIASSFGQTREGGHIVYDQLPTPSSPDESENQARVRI

[5] = molecular target: T3, Arginase-1 (Homo sapiens) (UniProt P05089); test: Potency index, ratio of ABH IC50 to test compound IC50 for recombinant human Arg1 extracted from Escherichia coli incubated for 30 mins by Ellman's method
T3 sequence (whole entry): T1 sequence (P05089 whole entry)

Arginase-1 [6] = molecular target: T1, Arginase-1; test: Inhibition of Arg1 (unknown origin)

NC[C@@H](CCCB(O)O)[C@H](N)C(=O)O
bioavailability [1]: 17%

C[C@H](N)C(=O)N[C@H](C(=O)O)[C@@H](CN)CCCB(O)O
F [2]: 16%

N[C@H](C(=O)O)[C@H](CF)CCCB(O)O
IC50 (Arginase-1 [3]): 0.655 µM
IC50 [4]: 1.88 µM

NCC(=O)NC[C@H](CCCB(O)O)[C@H](N)C(=O)O
IC50 (Arginase-1 [3]): 21 µM
bioavailability [1]: 6.3%
F [2]: 13%

N[C@H](C(=O)O)[C@H](CCCB(O)O)CN1CCCCC1
IC50 [4]: 17.4 µM

COC(=O)[C@H](CCCB(O)O)[C@H](N)C(=O)O
IC50 (Arginase-1 [3]): 18.5 µM
IC50 [4]: 51.9 µM

C[C@H](N)C(=O)NC[C@H](CCCB(O)O)[C@H](N)C(=O)O
IC50 (Arginase-1 [3]): 12 µM
bioavailability [1]: 5.1%
F [2]: 55%
Ratio IC50 [5]: 40

COC(=O)[C@@H](CCCB(O)O)[C@H](N)C(=O)O
IC50 (Arginase-1 [3]): > 100 µM
IC50 [4]: > 100 µM

CC(C)[C@H](N)C(=O)NC[C@@H](CCCB(O)O)[C@H](N)C(=O)O
IC50 (Arginase-1 [3]): 145 µM
bioavailability [1]: 29%
F [2]: 56%

COC[C@H](CCCB(O)O)[C@H](N)C(=O)O
IC50 (Arginase-1 [3]): 4.12 µM
IC50 [4]: 6.75 µM

CC[C@H](C)[C@H](N)C(=O)NC[C@H](CCCB(O)O)[C@H](N)C(=O)O
IC50 (Arginase-1 [3]): 33 µM
bioavailability [1]: 4.5%
F [2]: 39%

C[C@H](N)C(=O)N[C@H](C(=O)O)[C@H](CN)CCCB(O)O
IC50 (Arginase-1 [3]): 68 µM
F [2]: 66%

NC[C@H](CCCB(O)O)[C@H](N)C(=O)O
IC50 [4]: 0.224 µM
bioavailability [1]: 11%

CNC(=O)[C@H](CCCB(O)O)[C@H](N)C(=O)O
IC50 (Arginase-1 [3]): 34.2 µM
IC50 [4]: > 100 µM

CNC[C@@H](CCCB(O)O)[C@H](N)C(=O)O
IC50 [4]: 1.93 µM

CC[C@H](N)C(=O)NC[C@H](CCCB(O)O)[C@H](N)C(=O)O
IC50 (Arginase-1 [3]): 25 µM
bioavailability [1]: 1.5%
F [2]: 72%

N[C@H](C(=O)O)[C@@H](CF)CCCB(O)O
IC50 (Arginase-1 [3]): 4.23 µM
IC50 [4]: 6.08 µM

COC[C@@H](CCCB(O)O)[C@H](N)C(=O)O
IC50 (Arginase-1 [3]): 10.9 µM
IC50 [4]: 18.7 µM

N[C@@H](CCCCB(O)O)C(=O)O
IC50 (Arginase-1 [6]): 0.47 µM

N[C@H](C(=O)O)[C@@H](N)CCCB(O)O
IC50 (Arginase-1 [3]): 74 µM
IC50 [4]: 96.8 µM

CC(C)[C@H](N)C(=O)NC[C@H](CCCB(O)O)[C@H](N)C(=O)O
IC50 (Arginase-1 [3]): 43 µM
bioavailability [1]: 8.3%
F [2]: 41%

CNC(=O)[C@@H](CCCB(O)O)[C@H](N)C(=O)O
IC50 (Arginase-1 [3]): > 100 µM

NCC[C@@H](CCCB(O)O)[C@H](N)C(=O)O
IC50 [4]: 0.625 µM

C[C@H](N)C(=O)NC[C@@H](CCCB(O)O)[C@H](N)C(=O)O
IC50 (Arginase-1 [3]): 157 µM
bioavailability [1]: 10%

N=C(N)NC[C@@H](CCCB(O)O)[C@H](N)C(=O)O
IC50 (Arginase-1 [3]): 0.22 µM
IC50 [4]: 0.534 µM

NC(=O)NC[C@@H](CCCB(O)O)[C@H](N)C(=O)O
IC50 [4]: 5.18 µM

CC(C)(C)[C@H](N)C(=O)NC[C@H](CCCB(O)O)[C@H](N)C(=O)O
IC50 (Arginase-1 [3]): 32 µM
bioavailability [1]: 19%

NC(=O)[C@@H](CCCB(O)O)[C@H](N)C(=O)O
IC50 (Arginase-1 [3]): > 100 µM
IC50 [4]: > 100 µM

CC(C)[C@H](N)C(=O)N[C@H](C(=O)O)[C@H](CN)CCCB(O)O
F [2]: 31%

NC(=O)[C@H](CCCB(O)O)[C@H](N)C(=O)O
IC50 (Arginase-1 [3]): 19.2 µM
IC50 [4]: 41.8 µM
